Results on eleven molecules are retold here after patent US10759793B2, “2-(pyrazolopyridin-3-yl)pyrimidine derivatives as JAK inhibitors” (ALMIRALL, S.A., priority 2015, dated 2020).

pIC50: −log10 of the molar value.

What all share (format): biochemical
Test [1] has as its target JAK3 (Homo sapiens (Human), UniProt P52333). As to the kind of experiment: In vitro JAK kinase assay (TR-FRET), JAK3. To be noted: catalytic domain aa 795-1124, GST-fusion; ATP 0.6 μM; peptide 140 nM; 30 minutes at room temperature. Here is the method:
(§1) Compounds were screened for their ability to inhibit JAK1, JAK2 and JAK3 using the assays as indicated below. […] The enzymatic activity was assayed using as substrate a biotinylated peptide, poly (GT)-Biotin (CisBio). […] The degree of phosphorylation was detected by TR-FRET (time-resolved fluorescence energy transfer). […] The enzymatic reactions took place for 30 minutes at room temperature. […] Incubate for 3 h and read on Victor 2V spectrofluorometer (Perkin Elmer) set to read fluorescence resonance energy transfer.
Background: Time-resolved FRET reads energy transfer from a long-lived donor to a nearby acceptor.

Test [2] deals with JAK2 (Homo sapiens (Human), UniProt O60674). Nature of the test: In vitro JAK kinase assay (TR-FRET), JAK2. The note with it: catalytic domain aa 826-1132, GST-fusion; ATP 0.2 μM; peptide 20 nM; 30 minutes at room temperature. As for the experimental part: as §1
Test [3] concerns the target JAK1 (Homo sapiens (Human), UniProt P23458). Nature of the test: In vitro JAK kinase assay (TR-FRET), JAK1. To be noted: catalytic domain aa 850-1154, GST-fusion; ATP 3 μM; peptide 60 nM; 30 minutes at room temperature. Here is the method:
as §1

JAK1, sequence (P23458 850-1154): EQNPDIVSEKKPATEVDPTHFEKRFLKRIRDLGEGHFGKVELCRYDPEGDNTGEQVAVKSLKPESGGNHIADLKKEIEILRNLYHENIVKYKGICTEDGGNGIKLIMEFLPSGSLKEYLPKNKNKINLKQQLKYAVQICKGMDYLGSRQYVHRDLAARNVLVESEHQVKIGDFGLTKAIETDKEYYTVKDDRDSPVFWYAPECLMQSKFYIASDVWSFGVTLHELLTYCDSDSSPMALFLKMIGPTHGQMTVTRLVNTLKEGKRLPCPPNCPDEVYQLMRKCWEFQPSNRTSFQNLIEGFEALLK
JAK3, sequence (P52333 795-1124): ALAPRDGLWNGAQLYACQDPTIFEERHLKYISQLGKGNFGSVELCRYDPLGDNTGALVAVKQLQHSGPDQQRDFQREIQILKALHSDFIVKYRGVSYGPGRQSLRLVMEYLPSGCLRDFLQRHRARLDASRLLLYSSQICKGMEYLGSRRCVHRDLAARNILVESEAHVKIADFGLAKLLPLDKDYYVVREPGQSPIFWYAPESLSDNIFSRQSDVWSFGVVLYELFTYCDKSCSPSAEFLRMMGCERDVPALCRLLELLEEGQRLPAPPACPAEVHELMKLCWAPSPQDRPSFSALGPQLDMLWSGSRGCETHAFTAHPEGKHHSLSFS
JAK2, sequence (O60674 826-1132): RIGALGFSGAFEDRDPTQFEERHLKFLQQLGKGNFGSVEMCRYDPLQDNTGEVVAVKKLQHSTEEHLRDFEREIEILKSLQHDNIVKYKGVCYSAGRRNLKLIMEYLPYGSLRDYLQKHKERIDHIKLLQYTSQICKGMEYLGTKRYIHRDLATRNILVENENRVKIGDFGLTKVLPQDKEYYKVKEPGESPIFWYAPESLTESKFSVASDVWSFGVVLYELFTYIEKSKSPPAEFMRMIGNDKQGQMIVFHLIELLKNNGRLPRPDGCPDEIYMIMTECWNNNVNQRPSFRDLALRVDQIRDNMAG

For orientation: pIC50 means the IC50 on a negative log10 scale, so that one unit is a factor of ten. Low readings indicate a high IC50, high ones a low IC50. In the case of “3-((3R)-3-{[5-Fluoro-6-(4-hydroxypiperidin-1-yl)-2-pyrazolo[1,5-a]pyridin-3-ylpyrimidin-4-yl]oxy}piperidin-1-yl)-3-oxopropanenitrile [Example 76]”, the negative-log IC50 (pIC50) in test [1] was 8.30; in test [2] it was 9.00; in test [3], 8.05.
The corresponding values for “3-{(3R)-3-[(6-Methoxy-2-pyrazolo[1,5-a]pyridin-3-ylpyrimidin-4-yl)amino]piperidin-1-yl}-3-oxopropanenitrile [Example 95]” are 8.15, 8.52 and 8.52.
Take `N#CC[C@H]1CC[C@H](Nc2nc(-c3cnn4ccccc34)nc(NCCO)c2F)CC1` [Example 8, [Trans-4-({5-fluoro-6-[(2-hydroxyethyl)amino]-2-pyrazolo[1,5-a]pyridin-3-ylpyrimidin-4-yl}amino)cyclohexyl]acetonitrile]: the figures for the pIC50 in test [1] and in test [3] were 8.00 and 7.80, respectively.
In turn, `COc1ccc(-c2nc(-c3cnn4ccccc34)nc(N[C@@H]3CCCN(C(=O)CO)C3)c2F)cn1` [Example 35, 2-((3R)-3-{[5-Fluoro-6-(6-methoxypyridin-3-yl)-2-pyrazolo[1,5-a]pyridin-3-ylpyrimidin-4-yl]amino}piperidin-1-yl)-2-oxoethanol] showed a pIC50 in test [3] of 8.15.
Take `NC(=O)c1nc(-c2cnn3ccccc23)nc(N[C@@H]2CCCN(C(=O)CO)C2)c1F` [Example 48, 5-Fluoro-6-{[(3R)-1-glycoloylpiperidin-3-yl]amino}-2-pyrazolo[1,5-a]pyridin-3-ylpyrimidine-4-carboxamide]: the values for the pIC50 in test [1] and in test [3] were 8.30 and 7.89, respectively.
In test [3], `N#Cc1cnc(N2CCC[C@@H](Nc3nc(-c4cnn5ccccc45)nc(OCCO)c3F)C2)cn1` [Example 54, 5-((3R)-3-{[5-fluoro-6-(2-hydroxyethoxy)-2-pyrazolo[1,5-a]pyridin-3-ylpyrimidin-4-yl]amino}piperidin-1-yl)pyrazine-2-carbonitrile] gave a negative logarithm of the IC50 (pIC50) of 8.15.
In the case of `N#CCC(=O)N1CCC[C@@H](Oc2nc(-c3cnn4ccccc34)nc(OCCO)c2F)C1` [Example 66, 3-((3R)-3-{[5-Fluoro-6-(2-hydroxyethoxy)-2-pyrazolo[1,5-a]pyridin-3-ylpyrimidin-4-yl]oxy}piperidin-1-yl)-3-oxopropanenitrile], the pIC50 is 8.40 in test [1] and 8.00 in test [3].
As to `O=C(O)c1ccc(-c2nc(-c3cnn4ccccc34)nc(N[C@@H]3CCCN(C(=O)CO)C3)c2F)cn1` [Example 79, 5-(5-Fluoro-6-{[(3R)-1-glycoloylpiperidin-3-yl]amino}-2-pyrazolo[1,5-a]pyridin-3-ylpyrimidin-4-yl)pyridine-2-carboxylic acid], the negative logarithm of the IC50 (pIC50) was 8.22 in test [1] and 8.70 in test [3].
For the molecule `CCOCCOc1nc(-c2cnn3ccccc23)nc(N[C@@H]2CCCN(C(=O)CO)C2)c1F` [Example 83, 2-((3R)-3-{[6-(2-Ethoxyethoxy)-5-fluoro-2-pyrazolo[1,5-a]pyridin-3-ylpyrimidin-4-yl]amino}piperidin-1-yl)-2-oxoethanol], the pIC50 in test [1] is 8.40; in test [3] it was 7.49.
In the same order, the values of `O=C(CO)N1CCC[C@@H](Nc2nc(-c3cnn4ccccc34)nc(-c3ccc(CO)nc3)c2F)C1` [Example 84, 2-[(3R)-3-({5-Fluoro-6-[6-(hydroxymethyl)pyridin-3-yl]-2-pyrazolo[1,5-a]pyridin-3-ylpyrimidin-4-yl}amino)piperidin-1-yl]-2-oxoethanol] are 8.30 and 8.70.
`COc1cc(-c2cc(N[C@@H]3CCCN(C(=O)CO)C3)nc(-c3cnn4ccccc34)n2)ccn1` [Example 98, 2-((3R)-3-{[6-(2-Methoxypyridin-4-yl)-2-pyrazolo[1,5-a]pyridin-3-ylpyrimidin-4-yl]amino}piperidin-1-yl)-2-oxoethanol]: the pIC50 was 8.30 in test [1] and 8.52 in test [3].
